Row | melting point | SMILES
1 | 252 °C | Cc1sc(Nc2cnccn2)nc1-c1cn[nH]c1 [Compound 1-39, 5-Methyl-N-(pyrazin-2-yl)-4-(1H-pyrazol-4-yl)thiazol-2-amine]
2 | 295 °C (dec.) | Cc1cccc(Nc2nc(-c3c[nH]nc3C)cs2)n1 [Compound 1-23, 4-(3-Methyl-1H-pyrazol-4-yl)-N-(6-methylpyridin-2-yl)thiazol-2-amine]
3 | 205 to 207 °C | Cc1sc(NC2CCCCC2)nc1-c1cn[nH]c1 [Compound 1-29, N-Cyclohexyl-5-methyl-4-(1H-pyrazol-4-yl)thiazol-2-amine]
4 | 317 to 319 °C | Clc1cccc(Nc2nc(-c3cn[nH]c3)ns2)n1 [Compound 1-42, N-(6-Chloropyridin-2-yl)-3-(1H-pyrazol-4-yl)-1,2,4-thiadiazol-5-amine]
5 | 198 to 199 °C | Fc1ccc(F)c(Nc2cccc(-c3cn[nH]c3)n2)c1 [Compound 2-1, N-(2,5-Difluorophenyl)-6-(1H-pyrazol-4-yl)pyridin-2-amine]
6 | 274 °C | Cc1ccnc(Nc2nc(-c3cn[nH]c3)c(C)s2)c1 [Compound 1-19, 5-Methyl-N-(4-methylpyridin-2-yl)-4-(1H-pyrazol-4-yl)thiazol-2-amine]
7 | 197 °C | Cc1sc(NC2CCCC2)nc1-c1cn[nH]c1 [Compound 1-37, N-Cyclopentyl-5-methyl-4-(1H-pyrazol-4-yl)thiazol-2-amine]
8 | 248 to 254 °C | CC(C)C(=O)n1cc(-c2nsc(Nc3ccccn3)n2)cn1 [Compound 1-36, 2-Methyl-1-(4-(5-(pyridin-2-ylamino)-1,2,4-thiadiazol-3-yl)-1H-pyrazol-1-yl)propan-1-one]
9 | 300 °C (dec.) | c1ccc(Nc2nc(-c3cn[nH]c3)ns2)nc1 [Compound 1-35, 3-(1H-Pyrazol-4-yl)-N-(pyridin-2-yl)-1,2,4-thiadiazol-5-amine]
10 | 297 to 298 °C | Cc1sc(Nc2ccccn2)nc1-c1cnn(C(=O)NC(C)C)c1 [Compound 1-50, N-Isopropyl-4-(5-methyl-2-(pyridin-2-ylamino)thiazol-4-yl)-1H-pyrazole-1-carboxamide]
11 | > 300 °C | Cc1sc(Nc2ncc(F)cc2F)nc1-c1cn[nH]c1 [Compound 1-20, N-(3,5-Difluoropyridin-2-yl)-5-methyl-4-(1H-pyrazol-4-yl)thiazol-2-amine]
12 | > 300 °C | Cc1cccc(Nc2nc(-c3c[nH]nc3C)ns2)n1 [Compound 1-40, 3-(3-Methyl-1H-pyrazol-4-yl)-N-(6-methylpyridin-2-yl)-1,2,4-thiadiazol-5-amine]
13 | 320 °C | Cc1sc(Nc2ccc(F)cn2)nc1-c1cn[nH]c1 [Compound 1-24, N-(5-Fluoropyridin-2-yl)-5-methyl-4-(1H-pyrazol-4-yl)thiazol-2-amine]
14 | 276 to 278 °C | CCc1cccc(Nc2nc(-c3cn[nH]c3)c(C)s2)n1 [Compound 1-48, N-(6-Ethylpyridin-2-yl)-5-methyl-4-(1H-pyrazol-4-yl)thiazol-2-amine]
15 | 159 to 160 °C | Cc1cccc(Nc2nc(-c3cnn(C(=O)C(C)C)c3)c(C)s2)n1 [Compound 1-30, 2-Methyl-1-(4-(5-methyl-2-(6-methylpyridin-2-ylamino)thiazol-4-yl)-1H-pyrazol-1-yl)propan-1-one]
16 | 278 to 282 °C | Cc1cccc(Nc2nc(-c3cn[nH]c3)c(Cl)s2)n1 [Compound 1-52, 5-Chloro-N-(6-methylpyridin-2-yl)-4-(1H-pyrazol-4-yl)thiazol-2-amine]
17 | 168 °C | Cc1sc(Nc2ccccn2)nc1-c1cnn(C(=O)C(C)C)c1 [Compound 1-26, 2-Methyl-1-(4-(5-methyl-2-(pyridin-2-ylamino)thiazol-4-yl)-1H-pyrazol-1-yl)propan-1-one]
18 | 276 °C | Cc1cccc(Nc2nc(-c3cn[nH]c3)ns2)n1 [Compound 1-38, N-(6-Methylpyridin-2-yl)-3-(1H-pyrazol-4-yl)-1,2,4-thiadiazol-5-amine]
19 | 218 °C | Cc1n[nH]cc1-c1nc(Nc2ccccn2)sc1C [Compound 1-15, 5-Methyl-4-(3-methyl-1H-pyrazol-4-yl)-N-(pyridin-2-yl)thiazol-2-amine]
20 | 243 to 246 °C | CCc1sc(Nc2ccccn2)nc1-c1cn[nH]c1 [Compound 1-22, 5-Ethyl-4-(1H-pyrazol-4-yl)-N-(pyridin-2-yl)thiazol-2-amine]
21 | 193 °C | Cc1sc(Nc2ccccn2)nc1-c1cnn(S(C)(=O)=O)c1 [Compound 1-45, 5-Methyl-4-(1-(methylsulfonyl)-1H-pyrazol-4-yl)-N-(pyridin-2-yl)thiazol-2-amine]
22 | 196 to 199 °C | Cc1n[nH]cc1-c1csc(Nc2cc(F)ccc2F)n1 [Compound 1-17, N-(2,5-Difluorophenyl)-4-(3-methyl-1H-pyrazol-4-yl)thiazol-2-amine]
23 | 250 °C (dec.) | OCc1sc(Nc2ccccn2)nc1-c1cn[nH]c1 [Compound 1-57, (4-(1H-Pyrazol-4-yl)-2-(pyridin-2-ylamino)thiazol-5-yl)methanol]
24 | > 300 °C | Cc1n[nH]cc1-c1nsc(Nc2ncc(F)cc2F)n1 [Compound 1-44, N-(3,5-Difluoropyridin-2-yl)-3-(3-methyl-1H-pyrazol-4-yl)-1,2,4-thiadiazol-5-amine]
25 | 276 to 278 °C | Cc1ccnc(Nc2nc(-c3c[nH]nc3C)cs2)c1 [Compound 1-21, 4-(3-Methyl-1H-pyrazol-4-yl)-N-(4-methylpyridin-2-yl)thiazol-2-amine]
26 | 140 to 144 °C | Cc1sc(Nc2ccccn2)nc1-c1cnn(C(=O)C2CCCCC2)c1 [Compound 1-28, Cyclohexyl(4-(5-methyl-2-(pyridin-2-ylamino)thiazol-4-yl)-1H-pyrazol-1-yl)methanone]
27 | 270 °C (dec.) | Cc1sc(Nc2ccccn2)nc1-c1cnn(C(=O)NC2CC2)c1 [Compound 1-59, N-Cyclopropyl-4-(5-methyl-2-(pyridin-2-ylamino)thiazol-4-yl)-1H-pyrazole-1-carboxamide]
28 | 285 °C (dec.) | Cc1n[nH]cc1-c1nsc(Nc2cccc(Cl)n2)n1 [Compound 1-41, N-(6-Chloropyridin-2-yl)-3-(3-methyl-1H-pyrazol-4-yl)-1,2,4-thiadiazol-5-amine]
29 | 137 to 138 °C | Cc1sc(Nc2ccccn2)nc1-c1cnn(C(=O)N2CCCCC2)c1 [Compound 1-34, (4-(5-Methyl-2-(pyridin-2-ylamino)thiazol-4-yl)-1H-pyrazol-1-yl)(piperidin-1-yl)methanone]
30 | 230 °C (dec.) | Cc1sc(Nc2cccc(F)n2)nc1-c1cnn(C(N)=O)c1
